The test system of data set [1] is Staphylococcus aureus. The experiment in a line: Antibacterial activity against multi-resistant Staphylococcus aureus ATCC BAA-44 by microbroth dilution method. Format: functional, organism-based. (In general: Dilution methods test growth across graded concentrations, often in twofold steps.)
Data set [2] can be described thus: Antioxidant activity assessed as DPPH radical scavenging activity at > 50 uM and measure every 10 mins for 30 mins subsequently measured every 30 mins for 4 hrs by spectrophotometric method. Format: functional. Background: Loss of DPPH colour is used to gauge radical scavenging.
For data set [3], the system named is HCT-116. The data set can be described thus: Cytotoxicity against human HCT116 cells assessed as reduction in cell viability by MTT assay. Format: functional, cell-based. Background: Tetrazolium assays rely on reduction of a dye to a coloured formazan, in cell work by metabolically active cells.
Data set [4] concerns Pseudomonas aeruginosa. The data set can be described thus: Antibacterial activity against Pseudomonas aeruginosa ATCC 15442 by microbroth dilution method. Format: functional, organism-based.
The test system of data set [5] is Staphylococcus aureus. The experiment in a line: Antibacterial activity against Staphylococcus aureus ATCC 25923 by microbroth dilution method. The format is functional, organism-based.
A short description of data set [6]: Metal chelating activity of the compound assessed as Fe2+-compound complex formation by measuring absorbance at > 50 uM in presence of ferrozine by spectrophotometric method.
Data set [7] relates to Staphylococcus aureus. The data set can be described thus: Antibacterial activity against methicillin-resistant Staphylococcus aureus ATCC BAA-41 by microbroth dilution method. Format: functional, organism-based.
Data set [8] in a line: Stability of compound in methanol. The format is physicochemical.
Data set [9] has as its system Staphylococcus aureus. The data set can be described thus: Antibacterial activity against methicillin-resistant Staphylococcus aureus ATCC BAA-41 assessed as growth inhibition at 0.125 mg/m by microbroth dilution method relative to control. Format: functional.
The subject of data set [10] is HCT-116. The experiment in a line: Cytotoxicity against human HCT116 cells assessed as assessed as growth inhibition at 200 uM by MTT assay relative to control. Format: functional. The settings on record: read-out: GI.
Data set [11] relates to Staphylococcus aureus. The experiment in a line: Antibacterial activity against Staphylococcus aureus ATCC 25923 assessed as growth inhibition at 0.125 mg/m by microbroth dilution method relative to control. Format: functional.
The test system of data set [12] is Pseudomonas aeruginosa. The data set can be described thus: Antibacterial activity against Pseudomonas aeruginosa ATCC 15442 assessed as growth inhibition at 0.125 mg/ml by microbroth dilution method relative to control. Format: functional. The settings on record: read-out: GI.

Activity calls are given as the source filed them. No cut-off for these calls is given here.

`CC(=O)Cc1cc(O)cc2c1CC(C)C(O)(C(C)C(=O)/C(C)=C/C(C)=C/C(C)C(C)O)O2` (configuration not stated): the outcome (with Staphylococcus aureus [1]; in [2]; in the data set on HCT-116 [3]; with Pseudomonas aeruginosa [4]; in the data set on Staphylococcus aureus [5]; in [6]) was inactive. Also, in the data set with Staphylococcus aureus [7], the outcome was inactive.

Usually IC50 stands for the concentration at which inhibition is half-maximal. Turning to `C=C[C@]1(C)C=C2C(=O)[C@@]3(O)OC(=O)[C@@]4(CCCC(C)(C)[C@H]34)[C@@]2(O)CC1` [SPHAEROPSIDIN A], the half-maximal inhibitory concentration (IC50) with HCT-116 [3] was 4.9 µM; in the data set on Pseudomonas aeruginosa [4] it was greater than 100 µM; in the data set on Staphylococcus aureus [5], 32.6 µM; in the data set with Staphylococcus aureus [7] it was 35.3 µM. Besides, the Stability result in [8] is recorded as “Stable”.

`COc1cc(O)cc(CC(C)=O)c1C[C@@H](C)C(=O)[C@@H](C)C(=O)/C(C)=C/C(C)=C/[C@H](C)[C@H](C)O`: the result (in the data set with Staphylococcus aureus [1]; in data set [2]; in the data set with HCT-116 [3]; with Pseudomonas aeruginosa [4]; with Staphylococcus aureus [5]; in data set [6]) was inactive. Moreover, the result with Staphylococcus aureus [7] was inactive.

Take `CN[C@H](CC(C)C)C(=O)N[C@H]1C(=O)N[C@@H](CC(N)=O)C(=O)N[C@H]2C(=O)N[C@H]3C(=O)N[C@H](C(=O)N[C@H](C(=O)O)c4cc(O)cc(O)c4-c4cc3ccc4O)[C@H](O)c3ccc(c(Cl)c3)Oc3cc2cc(c3O[C@@H]2O[C@H](CO)[C@@H](O)[C@H](O)[C@H]2O[C@H]2C[C@](C)(N)[C@H](O)[C@H](C)O2)Oc2ccc(cc2Cl)[C@H]1O` [VANCOMYCIN]: the “growth inhibition (GI)” value in the data set on Staphylococcus aureus [9] was 100%.

Regarding `C=C[C@]1(C)C=C2C(=O)[C@]3(O)OC(=O)[C@@]4(CCCC(C)(C)[C@@H]43)[C@H]2CC1`, the 50% inhibitory concentration (IC50) with HCT-116 [3] was 32.7 µM; with Pseudomonas aeruginosa [4] it was greater than 100 µM; with Staphylococcus aureus [5], 71.6 µM; in the data set with Staphylococcus aureus [7] it was 77.8 µM. In addition, the Stability result in data set [8] is recorded as “Unstable”.

As to `COc1cc(O)cc(CC(C)=O)c1C[C@@H](C)C(=O)[C@H](C)C(=O)/C(C)=C/C(C)=C/[C@H](C)[C@H](C)O`, the result (with Staphylococcus aureus [1]; in data set [2]; in the data set with HCT-116 [3]; with Pseudomonas aeruginosa [4]; in the data set on Staphylococcus aureus [5]; in data set [6]) was inactive. Moreover, the outcome with Staphylococcus aureus [7] was inactive.

`COc1cc([C@@H]2c3cc4c(cc3[C@@H](O[C@@H]3O[C@@H]5CO[C@@H](C)O[C@H]5[C@H](O)[C@H]3O)[C@H]3COC(=O)[C@H]23)OCO4)cc(OC)c1O` [ETOPOSIDE]: the inhibition of growth at 200 µM in the data set on HCT-116 [10] was 82.8%.

As for `CC(=O)Cc1cc(O)cc(O)c1CC(C)C(=O)C(C)C(=O)/C(C)=C/C(C)=C/C(C)C(C)O` (configuration not stated), the result (in the data set on Staphylococcus aureus [1]; in data set [2]; in the data set with HCT-116 [3]; with Pseudomonas aeruginosa [4]; in the data set on Staphylococcus aureus [5]; in data set [6]) was inactive. Also, in the data set with Staphylococcus aureus [7], the result was inactive.

Turning to `NC[C@H]1O[C@H](O[C@H]2[C@H](O)[C@@H](O[C@H]3O[C@H](CO)[C@@H](O)[C@H](N)[C@H]3O)[C@H](N)C[C@@H]2N)[C@H](O)[C@@H](O)[C@@H]1O` [KANAMYCIN], the “growth inhibition (GI)” value with Staphylococcus aureus [11] was 100%. Further, in the data set with Pseudomonas aeruginosa [12], the inhibition of growth at 125 µg/mL worked out at 100%.

Source of the values: ChEMBL document CHEMBL4414597, “Polyketides from Marine-Derived Aspergillus porosus: Challenges and Opportunities for Determining Absolute Configuration” (J Nat Prod, 2019).
